*1 amine or outer side, *2 acyl side, *3 side chain or, on linkers, in order; H or OH if unused. Where a SMILES comes first, the peptide text is derived from it. Bridges are numbered along the chain shown (N, C = ends). [ ]: non-standard residue; d: D form. The star is where a group is joined. NMeAla(5-Cl-2-cPrO-3-pyridyl) = CN[C@@H](Cc1cc(Cl)cnc1OC1CC1)C(=O)O; X58 = CC(C)C(=O)N1CC=C(c2ccc(Cl)cc2C[C@@H](C(=O)[*:2])N(C)[*:1])CC1; X105 = CN([C@@H](Cc1cc(Cl)ccc1-c1cnn(C2CCOC2)c1)C(=O)[*:2])[*:1]; X86 = CN([C@@H](Cc1cc(Cl)ccc1-c1cnn(C2CCOCC2)c1)C(=O)[*:2])[*:1]; X54 = CN([C@@H](Cc1cc(F)ccc1-c1cnn(C2CCC2)c1)C(=O)[*:2])[*:1]; X68 = CN([C@@H](Cc1cc(Cl)ccc1-c1cnn(C2CC2)c1)C(=O)[*:2])[*:1]; X79 = CC(C)n1cc(-c2ccc(Cl)cc2C[C@@H](C(=O)[*:2])N(C)[*:1])cn1; NMehhhLys(Me) = CN([C@@H](CCCCCCCN(C)[*:3])C(=O)[*:2])[*:1]; NMe3Pal(2-OiPr,5-Cl) = CN[C@@H](Cc1cc(Cl)cnc1OC(C)C)C(=O)O; NMe(hhhLys) = CN([C@@H](CCCCCCCN[*:3])C(=O)[*:2])[*:1]; Cyclobutanecarbonyl(1-CF3) = O=C(C1(C(F)(F)F)CCC1)*; X94 = CN([C@@H](Cc1cc(F)ccc1C1CC1)C(=O)[*:2])[*:1]; cBuCO(3,3-F2-1-CF3) = O=C(C1(C(F)(F)F)CC(F)(F)C1)*; Pro(trans-4-F) = O=C(O)[C@@H]1C[C@@H](F)CN1; Gly(cPr) = N[C@H](C(=O)O)C1CC1
What was measured:
CyclinA2/CDK2 = target: T1, CyclinA2/CDK2 (Homo sapiens, UniProt P20248); test: Fluorescence Polarization (FP) competitive binding assay, Cyclin A2/Cdk2; details: 8 nM Cyclin A2/Cdk2, 2 nM FAM probe; average of 2-3 independent experiments; read-out: Cyclin A FP IC50;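 also: plates equilibrated two hours at room temperature before polarization reading, IC50 fitted from eight-concentration compound titration curves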
T1 construct: purchased CRELUX Protein Services

CyclinB1/CDK1 = target: T2, CyclinB1/CDK1 (Homo sapiens, UniProt P14635); test: Fluorescence Polarization (FP) competitive binding assay, Cyclin B1/Cdk1; details: 10 nM Cyclin B1/Cdk1, 2 nM FAM probe; average of 2-3 independent experiments; read-out: Cyclin B FP IC50;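 also: fluorescence polarization read after equilibration at room temperature, with IC50 taken from serially diluted dose-response curves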
T2 construct: purchased Eurofins, discovery 14-450

CyclinE1/CDK2 = target: T3, CyclinE1/CDK2 (Homo sapiens, UniProt P24864); test: Fluorescence Polarization (FP) competitive binding assay, Cyclin E1/Cdk2; details: 10 nM Cyclin E1/Cdk2, 2 nM FAM probe; average of 2-3 independent experiments; read-out: Cyclin E FP IC50;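 also: readings taken after two-hour equilibration at room temperature in HEPES buffer with NaCl, DTT, NP-40 and BSA, IC50 fitted from eight-concentration serial dilution series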
T3 construct: purchased Eurofins, discovery 14-475

WI-38 cells = test: MTT proliferation assay, WI-38; type: cell-based; details: 3 days compound exposure, 1:3 serial dilution starting at 10 μM;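 also: Eight- or ten-point dilution series, with exposure length chosen to span about three to four cell doublings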
NCI-H1048 cells = test: MTT proliferation assay, NCI-H1048; type: cell-based; details: 5 days compound exposure, 1:3 serial dilution starting at 10 μM;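 also: Dose-response in 96-well plates over 8 or 10 concentration points, with exposure spanning 3-4 cell doublings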
OVCAR3 cells = test: MTT proliferation assay, OVCAR3; type: cell-based; details: 5 days compound exposure, 1:3 serial dilution starting at 10 μM;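 also: compound given as an 8- or 10-point series, one day after plating, with exposure covering roughly 3-4 cell doublings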

Structure (SMILES) | IC50 (CyclinA2/CDK2) [nM] | IC50 (CyclinB1/CDK1) [nM] | IC50 (CyclinE1/CDK2) [nM] | GI50 (WI-38 cells) [nM] | GI50 (NCI-H1048 cells) [nM] | GI50 (OVCAR3 cells) [nM]
CC(C)C[C@@H]1NC(=O)[C@@H](N(C)C(=O)[C@@H](NC(=O)[C@@H]2C[C@@H](F)CN2C(=O)C2(C(F)(F)F)CC(F)(F)C2)C2CC2)CC=CCCCCNC(=O)[C@H](Cc2cc(Cl)ccc2C2=CCN(C(=O)C3CC3)CC2)N(C)C1=O [Example 89] | 120 | 20 | 5410 | 4340 | 310 | 380
CC(C)C[C@@H]1NC(=O)[C@@H](N(C)C(=O)[C@@H](NC(=O)[C@@H]2C[C@@H](F)CN2C(=O)C2(C(F)(F)F)CC(F)(F)C2)C2CC2)CC=CCCCCNC(=O)[C@H](Cc2cc(Cl)ccc2C2=CCN(C(=O)C(C)C)CC2)N(C)C1=O [Example 90] | 90 | 20 | 3700 | 4130 | 260 | 230
CC(C)C[C@@H]1NC(=O)[C@@H](N(C)C(=O)[C@@H](NC(=O)[C@@H]2C[C@@H](F)CN2C(=O)C2(C(F)(F)F)CC(F)(F)C2)C2CC2)CCCCCCCN(C)C(=O)[C@H](Cc2cc(F)ccc2-c2cnn(C3CCC3)c2)N(C)C1=O [Example 96] ({cBuCO(3,3-F2-1-CF3)}-[Pro(trans-4-F)][Gly(cPr)][NMehhhLys(Me)]L[X54]; lactam 3-C) | 20 | 20 | 120 | 8920 | 10 | 10
CC(C)C[C@@H]1NC(=O)[C@@H](N(C)C(=O)[C@@H](NC(=O)[C@@H]2C[C@@H](F)CN2C(=O)C2(C(F)(F)F)CC(F)(F)C2)C2CC2)CCCCCCCNC(=O)[C@H](Cc2cc(Cl)ccc2C2=CCN(C(=O)C(C)C)CC2)N(C)C1=O [Example 98] ({cBuCO(3,3-F2-1-CF3)}-[Pro(trans-4-F)][Gly(cPr)][NMe(hhhLys)]L[X58]; lactam 3-C) | 20 | 20 | 1100 | 16400 | 20 | 20
CC(C)C[C@@H]1NC(=O)[C@@H](N(C)C(=O)[C@@H](NC(=O)[C@@H]2C[C@@H](F)CN2C(=O)C2(C(F)(F)F)CCC2)C2CC2)CC=CCCCCN(C)C(=O)[C@H](Cc2cc(Cl)cnc2OC2CC2)N(C)C1=O [Example 106] | 120 | 20 | 240 | 6390 | 410 | 540
CC(C)C[C@@H]1NC(=O)[C@@H](N(C)C(=O)[C@@H](NC(=O)[C@@H]2C[C@@H](F)CN2C(=O)C2(C(F)(F)F)CCC2)C2CC2)CCCCCCCN(C)C(=O)[C@H](Cc2cc(Cl)cnc2OC2CC2)N(C)C1=O [Example 109] ({Cyclobutanecarbonyl(1-CF3)}-[Pro(trans-4-F)][Gly(cPr)][NMehhhLys(Me)]L[NMeAla(5-Cl-2-cPrO-3-pyridyl)]; lactam 3-C) | 40 | 20 | 170 | 9520 | 20 | 20
CC(C)C[C@@H]1NC(=O)[C@@H](N(C)C(=O)[C@@H](NC(=O)[C@@H]2C[C@@H](F)CN2C(=O)C2(C(F)(F)F)CC(F)(F)C2)C2CC2)CCCCCCCN(C)C(=O)[C@H](Cc2cc(Cl)ccc2-c2cnn(C3CC3)c2)N(C)C1=O [Example 110] ({cBuCO(3,3-F2-1-CF3)}-[Pro(trans-4-F)][Gly(cPr)][NMehhhLys(Me)]L[X68]; lactam 3-C) | 20 | 20 | 330 | 4800 | 10 | 10
CC(C)C[C@@H]1NC(=O)[C@@H](N(C)C(=O)[C@@H](NC(=O)[C@@H]2C[C@@H](F)CN2C(=O)C2(C(F)(F)F)CC(F)(F)C2)C2CC2)CCCCCCCN(C)C(=O)[C@H](Cc2cc(Cl)ccc2-c2cnn(C(C)C)c2)N(C)C1=O [Example 111] ({cBuCO(3,3-F2-1-CF3)}-[Pro(trans-4-F)][Gly(cPr)][NMehhhLys(Me)]L[X79]; lactam 3-C) | 20 | 20 | 280 | 8130 | 10 | 10
CC(C)C[C@@H]1NC(=O)[C@@H](N(C)C(=O)[C@@H](NC(=O)[C@@H]2C[C@@H](F)CN2C(=O)C2(C(F)(F)F)CC(F)(F)C2)C2CC2)CCCCCCCN(C)C(=O)[C@H](Cc2cc(Cl)ccc2-c2cnn(C3CCOC3)c2)N(C)C1=O (stereo partly drawn) [Example 113] ({cBuCO(3,3-F2-1-CF3)}-[Pro(trans-4-F)][Gly(cPr)][NMehhhLys(Me)]L[X105]; lactam 3-C) | 20 | 20 | 310 | 7240 | 10 | 10
CC(C)C[C@@H]1NC(=O)[C@@H](N(C)C(=O)[C@@H](NC(=O)[C@@H]2C[C@@H](F)CN2C(=O)C2(C(F)(F)F)CC(F)(F)C2)C2CC2)CCCCCCCN(C)C(=O)[C@H](Cc2cc(Cl)ccc2-c2cnn(C3CCOCC3)c2)N(C)C1=O [Example 114] ({cBuCO(3,3-F2-1-CF3)}-[Pro(trans-4-F)][Gly(cPr)][NMehhhLys(Me)]L[X86]; lactam 3-C) | 20 | 20 | 400 | 7190 | 10 | 10
Cc1nnc(-c2ccc(Cl)cc2C[C@H]2C(=O)N(C)CCCCC=CC[C@H](N(C)C(=O)[C@@H](NC(=O)[C@@H]3C[C@@H](F)CN3C(=O)C3(C(F)(F)F)CCC3)C3CC3)C(=O)N[C@@H](CC(C)C)C(=O)N2C)o1 [Example 115] | 40 | 20 | 170 | 11000 | 70 | 60
CC(C)C[C@@H]1NC(=O)[C@@H](N(C)C(=O)[C@@H](NC(=O)[C@@H]2C[C@@H](F)CN2C(=O)C2(C(F)(F)F)CCC2)C2CC2)CCCCCCCN(C)C(=O)[C@H](Cc2cc(Cl)cnc2OC(C)C)N(C)C1=O [Example 119] ({Cyclobutanecarbonyl(1-CF3)}-[Pro(trans-4-F)][Gly(cPr)][NMehhhLys(Me)]L[NMe3Pal(2-OiPr,5-Cl)]; lactam 3-C) | 30 | 20 | 100 | 8710 | 250 | 300
CC(C)C[C@@H]1NC(=O)[C@@H](N(C)C(=O)[C@@H](NC(=O)[C@@H]2C[C@@H](F)CN2C(=O)C2(C(F)(F)F)CC(F)(F)C2)C2CC2)CCCCCCCN(C)C(=O)[C@H](Cc2cc(F)ccc2C2CC2)N(C)C1=O [Example 121] ({cBuCO(3,3-F2-1-CF3)}-[Pro(trans-4-F)][Gly(cPr)][NMehhhLys(Me)]L[X94]; lactam 3-C) | 50 | 20 | 130 | 7610 | 40 | 70
CC(C)C[C@@H]1NC(=O)[C@@H](N(C)C(=O)[C@@H](NC(=O)[C@@H]2C[C@@H](F)CN2C(=O)C2(C(F)(F)F)CC(F)(F)C2)C2CC2)CC=CCCCCNC(=O)[C@H](Cc2cc(Cl)cnc2OC2CC2)N(C)C1=O [Example 129] | 210 | 20 | 820 | 6880 | 1460 | 2580
CC(C)C[C@@H]1NC(=O)[C@@H](N(C)C(=O)[C@@H](NC(=O)[C@@H]2N[C@@H](F)CC2C(=O)C2(C(F)(F)F)CC(F)(F)C2)C2CC2)CC=CCCCCN(C)C(=O)[C@H](Cc2cc(Cl)cnc2OC(C)C)N(C)C1=O (stereo partly drawn) [Example 130] | 70 | 20 | 310 | 8990 | 700 | 1550
CC(C)C[C@@H]1NC(=O)[C@@H](N(C)C(=O)[C@@H](NC(=O)[C@@H]2C[C@@H](F)CN2C(=O)C2(C(F)(F)F)CCC2)C2CC2)CC=CCCCCN(C)C(=O)[C@H](Cc2cc(Cl)cnc2OC(C)C)N(C)C1=O [Example 137] | 60 | 20 | 130 | 4580 | 600 | 760

Source: patent US20240408169A1 (priority 2023, published 2024)
